What was measured:
Assay in all cases: relative viability (nuclei count vs DMSO), 5 days (fraction); higher = more cells survive
[1] = compound: COc1cc2/c(=N/c3ccc(Br)cc3F)nc[nH]c2cc1OCC1CCN(C)CC1 [Vandetanib] + Cc1cc(Nc2cc(N3CCN(C)CC3)nc(Sc3ccc(NC(=O)C4CC4)cc3)n2)n[nH]1 [Tozasertib] (partner 0.1 µM)
Procedure, shortened: (§1)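 Relative viability is defined as nuclei in treated wells over nuclei in vehicle wells. Duplicate plates were run and medians reported. Lung cancer cell lines in 1536-well plates were dosed by pin tool one day after seeding, with one drug or with a fixed anchor-drug dose plus five library-drug doses (not always all listed) in √10 steps, and nuclei were counted after 5 days.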

[2] = compound: COc1cc(N2CCC(N3CCN(C)CC3)CC2)ccc1Nc1ncc(Cl)c(Nc2ccccc2S(=O)(=O)C(C)C)n1 [NVP-TAE684] + COc1cccc2cc(-c3nc([C@H]4CC[C@H](C(=O)O)CC4)n4ncnc(N)c34)[nH]c12 [OSI-027] (partner 0.5 µM)
Procedure, shortened: as §1

[3] = compound: COc1cc2/c(=N/c3ccc(Br)cc3F)nc[nH]c2cc1OCC1CCN(C)CC1 [Vandetanib] + Nc1ncn([C@H]2C[C@H](O)[C@@H](CO)O2)c(=O)n1 [Decitabine] (partner 2 µM)
Procedure, shortened: as §1

[4] = compound: COc1cc(N2CCC(N3CCN(C)CC3)CC2)ccc1Nc1ncc(Cl)c(Nc2ccccc2S(=O)(=O)C(C)C)n1 [NVP-TAE684] + NC(=O)Nc1cc(-c2cccc(F)c2)sc1C(=O)N[C@H]1CCCNC1 [AZD7762] (partner 0.2 µM)
Procedure, shortened: as §1

Cell Line | relative viability ([1]; first compound 0.02 µM) | relative viability ([1]; first compound 0.06325 µM) | relative viability ([1]; first compound 0.2 µM) | relative viability ([1]; first compound 0.6325 µM) | relative viability ([1]; first compound 2 µM) | relative viability ([2]; first compound 0.2 µM) | relative viability ([2]; first compound 0.6325 µM) | relative viability ([2]; first compound 2 µM) | relative viability ([3]; first compound 0.02 µM) | relative viability ([3]; first compound 0.06325 µM) | relative viability ([3]; first compound 0.2 µM) | relative viability ([3]; first compound 0.6325 µM) | relative viability ([3]; first compound 2 µM) | relative viability ([4]; first compound 0.2 µM) | relative viability ([4]; first compound 0.6325 µM) | relative viability ([4]; first compound 2 µM)
NCI-H1993 | 0.639 | 0.601 | 0.481 | 0.561 | 0.521 | 0.494 | 0.466 | 0.593 | 0.674 | 0.645 | 0.628 | 0.637 | 0.541 | 0.772 | 0.826 | 0.584
NCI-H2085 | 0.793 | 0.755 | 0.472 | 0.774 | 0.725 | 0.777 | 0.739 | 0.57 | 0.536 | 0.522 | 0.525 | 0.471 | 0.574 | 0.991 | 0.953 | 0.797
NCI-H2087 | 0.252 | 0.266 | 0.0945 | 0.278 | 0.262 | 0.538 | 0.438 | 0.354 | 0.364 | 0.379 | 0.281 | 0.286 | 0.233 | 1.47 | 1.37 | 1.22
NCI-H2126 | 0.814 | 0.8 | 0.795 | 0.745 | 0.657 | 0.603 | 0.631 | 0.493 | 0.537 | 0.551 | 0.592 | 0.576 | 0.552 | 1.03 | 1.01 | 0.684
NCI-H2170 | 0.75 | 0.733 | 0.796 | 0.685 | 0.764 | 0.703 | 0.579 | 0.63 | 0.44 | 0.478 | 0.472 | 0.458 | 0.455 | 1.04 | 0.814 | 0.785
NCI-H2342 | 0.592 | 0.552 | 0.463 | 0.461 | 0.493 |  | 0.585 | 0.34 | 0.727 | 0.75 | 0.8 | 0.699 | 0.723 | 0.463 | 0.437 | 0.349
NCI-H2347 | 0.607 |  | 0.553 | 0.563 | 0.674 | 0.403 | 0.368 | 0.301 | 0.595 | 0.525 | 0.685 | 0.619 | 0.568 | 0.723 | 0.613 | 0.628
NCI-H2405 | 0.754 | 0.716 | 0.738 | 0.685 | 0.714 | 0.564 | 0.613 | 0.261 | 0.749 | 0.687 | 0.747 | 0.8 | 0.718 | 0.767 | 0.598 | 0.31
NCI-H3122 | 0.522 | 0.36 | 0.372 | 0.399 | 0.4 | 0.173 | 0.127 | 0.154 | 0.454 | 0.39 | 0.178 | 0.456 | 0.481 | 0.22 | 0.184 | 0.127
PC-3 [JPC-3] | 0.851 | 0.831 | 0.938 | 0.776 | 0.491 | 0.686 | 0.759 |  | 0.876 | 0.847 | 0.72 | 0.661 | 0.488 | 0.821 | 0.673 | 0.54
PC-14 | 0.598 | 0.542 | 0.554 | 0.478 | 0.191 | 0.699 | 0.644 | 0.185 | 0.246 | 0.197 | 0.175 | 0.171 | 0.159 | 0.339 | 0.275 | 0.224
RERF-LC-KJ | 0.549 | 0.515 | 0.491 | 0.439 | 0.477 | 0.514 | 0.448 | 0.306 | 0.711 | 0.74 | 0.737 | 0.665 | 0.555 | 0.97 | 0.985 | 0.729
SW 900 | 0.688 | 0.417 | 0.142 | 0.634 | 0.609 | 0.536 | 0.425 | 0.703 | 0.406 | 0.39 |  | 0.48 | 0.437 | 0.526 | 0.476 | 0.445

— the supplement of paper PMC10307832
